# Measured values taken from patent publication US20260035360A1, “INHIBITORS OF MYC AND USES THEREOF” (Northwestern University, priority 2022, published 2026).
# Read-outs that look alike come from different tables or passages of the source.
# How the values were obtained:
# Assay type in all cases: cell-based
# MYC = molecular target: T1, MYC (Homo sapiens, UniProt P01106); experiment: MYC protein level in PC3 cells by western blot, 24 hr; details: Actin control; for remaining activity at 10 µM: read-out: Relative MYC protein at 10 μM (%, PC3 24 h)
# T1 construct: endogenous in cells; host or cells: PC3 cells
# T1 sequence (P01106 whole entry): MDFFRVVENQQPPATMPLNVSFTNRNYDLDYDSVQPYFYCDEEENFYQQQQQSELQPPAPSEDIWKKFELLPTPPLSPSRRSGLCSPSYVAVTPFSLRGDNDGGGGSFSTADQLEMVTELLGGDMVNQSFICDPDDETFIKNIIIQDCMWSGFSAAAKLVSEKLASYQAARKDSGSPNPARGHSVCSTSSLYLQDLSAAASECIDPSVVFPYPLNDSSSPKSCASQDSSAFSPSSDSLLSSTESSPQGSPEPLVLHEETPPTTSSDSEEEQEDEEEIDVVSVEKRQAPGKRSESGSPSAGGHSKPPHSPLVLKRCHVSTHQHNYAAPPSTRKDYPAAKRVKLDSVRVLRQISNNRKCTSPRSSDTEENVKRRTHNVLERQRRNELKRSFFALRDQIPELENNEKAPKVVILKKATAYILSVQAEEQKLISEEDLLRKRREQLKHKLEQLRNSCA
# Protocol: (§1) Table 2. Biological data of selected compounds. For IC50 determination. PC3 and PC12 cells were treated with increasing concentrations of the indicated compounds for 72 hrs and cell viability assessed using CellTitreGlo Assay (Promega). For MYC and ATF4 protein level determination. PC3 cells were treated with the indicated compounds for 24 hr sand cell lysates processed for western blot with MYC and ATF4 antibodies using Actin as a control. Quantification analyses were performed by Biorad ChemiDoc Imager and Bio-Rad Image Lab software.
# ATF4 = ATF4 protein level in PC3 cells by western blot, 24 hr; details: Actin control; for fold induction at 10 µM: Homo sapiens, PC-3, PC3, 24 h, read-out: Relative ATF4 protein at 10 μM (fold change, PC3 24 h)
# Protocol: as §1
# PC3 cells = experiment: PC3 cell viability, CellTitreGlo Assay, 72 hrs; details: Homo sapiens, PC-3
# Protocol: as §1
SMILES,"remaining activity at 10 µM (MYC; PC-3, 24 h, PC3, 24 h) [%]",fold induction at 10 µM (ATF4),IC50 (PC3 cells) [µM],"remaining activity at 10 µM (MYC; PC-3, PC3, 24 h) [%]","Relative MYC protein at 10 μM (%, PC3 24 h) (MYC) [%]","Relative ATF4 protein at 10 μM (fold change, PC3 24 h) (ATF4) [fold change]"
Cn1nc(C(F)(F)F)cc1-c1ccc(OCCCCCNC(=O)[C@H](CCCN=C(NC(=O)OC(C)(C)C)NC(=O)OC(C)(C)C)NC(=O)OC(C)(C)C)c(-c2ccc(Cl)c(C(F)(F)F)c2)c1O [NUCC-0226219],90.6,,,,,
Cc1ncsc1-c1ccc(CNC(=O)[C@@H]2C[C@@H](O)CN2C(=O)[C@@H](NC(=O)C2(F)CC2)C(C)(C)C)c(OCCOCCOCCOCCCCCOc2ccc(-c3cc(C(F)(F)F)nn3C)c(O)c2-c2ccc(Cl)c(C(F)(F)F)c2)c1 [NUCC-0226220],90.1,,,,,
Cc1ncsc1-c1ccc(CNC(=O)[C@@H]2C[C@@H](O)CN2C(=O)[C@@H](NC(=O)C2(F)CC2)C(C)(C)C)c(OCCOCCOCCOCCOCCCCCOc2ccc(-c3cc(C(F)(F)F)nn3C)c(O)c2-c2ccc(Cl)c(C(F)(F)F)c2)c1 [NUCC-0226221],85.9,,,,,
COc1ccc(C2=N[C@@H](c3ccc(Cl)cc3)[C@@H](c3ccc(Cl)cc3)N2C(=O)N2CCN(CCCCCOc3ccc(-c4cc(C(F)(F)F)nn4C)c(O)c3-c3ccc(Cl)c(C(F)(F)F)c3)C(=O)C2)c(OC(C)C)c1 [NUCC-0226223],91.5,5.5,18.6,,,
Cn1nc(C(F)(F)F)cc1-c1ccc(OCCCCCOCCOCCOc2cccc3c2C(=O)N(C2CCC(=O)NC2=O)C3=O)c(-c2ccc(Cl)c(C(F)(F)F)c2)c1O (centres unmarked) [NUCC-0226224],84.2,8.1,10.1,,,
Cc1ncsc1-c1ccc(CNC(=O)[C@@H]2C[C@@H](O)CN2C(=O)[C@@H](NC(=O)CCCCCCCCNC(=O)CCOCCCN(C(=O)c2ccc(Cl)c(C(F)(F)F)c2)c2ccc(-c3cc(C(F)(F)F)nn3C)c(O)c2)C(C)(C)C)cc1 [NUCC-0226226],81.9,10.6,5.1,,,
Cc1ncsc1-c1ccc(CNC(=O)[C@@H]2C[C@@H](O)CN2C(=O)[C@@H](NC(=O)CCCCCCCCCCNC(=O)CCOCCCN(C(=O)c2ccc(Cl)c(C(F)(F)F)c2)c2ccc(-c3cc(C(F)(F)F)nn3C)c(O)c2)C(C)(C)C)cc1 [NUCC-0226227],102,10.2,22.3,,,
Cc1ncsc1-c1ccc(CNC(=O)[C@@H]2C[C@@H](O)CC2C(=O)[C@@H](NC(=O)COCCNC(=O)CCOCCCN(C(=O)c2ccc(Cl)c(C(F)(F)F)c2)c2ccc(-c3cc(C(F)(F)F)nn3C)c(O)c2)C(C)(C)C)cc1 (some centres unmarked) [NUCC-0226228],38.1,23.1,6,,,
Cn1nc(C(F)(F)F)cc1-c1ccc(N(CCCOCCC(=O)NCCCCCCOc2cccc3c2C(=O)N(C2CCC(=O)NC2=O)C3=O)C(=O)c2ccc(Cl)c(C(F)(F)F)c2)cc1O (centres unmarked) [NUCC-0226229],56.4,16.4,15.6,,,
Cn1nc(C(F)(F)F)cc1-c1ccc(N(CCCOCCC(=O)NCCCCNC(=O)COc2cccc3c2C(=O)N(C2CCC(=O)NC2=O)C3=O)C(=O)c2ccc(Cl)c(C(F)(F)F)c2)cc1O (centres unmarked) [NUCC-0226230],105,1.9,,,,
Cn1nc(C(F)(F)F)cc1-c1ccc(N(CCCOCCC(=O)NCCOCCOCCNc2cccc3c2C(=O)N(C2CCC(=O)NC2=O)C3=O)C(=O)c2ccc(Cl)c(C(F)(F)F)c2)cc1O (centres unmarked) [NUCC-0226231],53.6,14.3,8.5,,,
CC(=O)Oc1c(-c2cc(C(F)(F)F)nn2C)ccc(OCc2ccccc2)c1-c1ccc(Cl)c(C(F)(F)F)c1 [NUCC-0226258],56.4,5.8,,,,
Cn1nc(C(F)(F)F)cc1-c1ccc(O)c(-c2ccc(Cl)c(C(F)(F)F)c2)c1O [NUCC-0226259],52,3.3,,,,
Cn1nc(C(F)(F)F)cc1-c1ccc(OCc2ccccc2)c(-c2ccc(Cl)c(C(F)(F)F)c2)c1O [NUCC-0226260],,4.6,,41.5,,
O=c1oc2c(-c3ccc(Cl)c(C(F)(F)F)c3)c(O)ccc2c2cc(C(F)(F)F)nn12 [NUCC-0226261],93.1,4.4,,,,
CC(=O)Oc1c(-c2cc(C(F)(F)F)nn2C)ccc(OCc2ccc(OCCOCCOS(=O)(=O)c3ccc(C)cc3)cc2)c1-c1ccc(Cl)c(C(F)(F)F)c1 [NUCC-0226263],113,0.7,,,,

SMILES,"remaining activity at 10 µM (MYC; PC-3, 24 h, PC3, 24 h) [%]",fold induction at 10 µM (ATF4),IC50 (PC3 cells) [µM],"remaining activity at 10 µM (MYC; PC-3, PC3, 24 h) [%]","Relative MYC protein at 10 μM (%, PC3 24 h) (MYC) [%]","Relative ATF4 protein at 10 μM (fold change, PC3 24 h) (ATF4) [fold change]"
Cc1ncsc1-c1ccc(CNC(=O)[C@@H]2C[C@@H](O)CN2C(=O)[C@@H](NC(=O)C2(F)CC2)C(C)(C)C)c(OCCOCCOCCCCCOc2ccc(-c3cc(C(F)(F)F)nn3C)c(O)c2-c2ccc(Cl)c(C(F)(F)F)c2)c1 [NUCC-0226264],102,1.3,,,,
Cc1ncsc1-c1ccc(CNC(=O)[C@@H]2C[C@@H](O)CN2C(=O)[C@@H](NCCOCCOCCCCCOc2ccc(-c3cc(C(F)(F)F)nn3C)c(O)c2-c2ccc(Cl)c(C(F)(F)F)c2)C(C)(C)C)cc1 [NUCC-0226265],115,2.2,,,,
Cc1ncsc1-c1ccc(CNC(=O)[C@@H]2C[C@@H](O)CC2C(=O)[C@@H](NCCOCCOCCOCCCCCOc2ccc(-c3cc(C(F)(F)F)nn3C)c(O)c2-c2ccc(Cl)c(C(F)(F)F)c2)C(C)(C)C)cc1 (some centres unmarked) [NUCC-0226266],91.8,1.7,,,,
COCCCN(C(=O)c1ccc(C(F)(F)F)c(Cl)c1)c1ccc(-c2cc(C(F)(F)F)nn2C)c(O)c1 [NUCC-0226267],46.4,8,4.6,,,
COCCOCCCN(C(=O)c1ccc(C(F)(F)F)c(Cl)c1)c1ccc(-c2cc(C(F)(F)F)nn2C)c(O)c1 [NUCC-0226268],52.9,5.4,,,,
Cc1ncsc1-c1ccc(CNC(=O)[C@@H]2C[C@@H](O)CN2C(=O)[C@@H](NCCOCCOc2ccc(COc3ccc(-c4cc(C(F)(F)F)nn4C)c(O)c3-c3ccc(Cl)c(C(F)(F)F)c3)cc2)C(C)(C)C)cc1 [NUCC-0226276],70,0.4,,,,
Cc1ncsc1-c1ccc(CNC(=O)[C@@H]2C[C@@H](O)CN2C(=O)[C@@H](NC(=O)C2(F)CC2)C(C)(C)C)c(OCCOCCOc2ccc(COc3ccc(-c4cc(C(F)(F)F)nn4C)c(O)c3-c3ccc(Cl)c(C(F)(F)F)c3)cc2)c1 [NUCC-0226277],97.6,1.6,,,,
Cn1nc(C(F)(F)F)cc1-c1ccc(OCc2ccc(OCCOCCOc3cccc4c3C(=O)N(C3CCC(=O)NC3=O)C4=O)cc2)c(-c2ccc(Cl)c(C(F)(F)F)c2)c1O (centres unmarked) [NUCC-0226279],85.1,2.1,,,,
CC(C)Cc1ccc(CN(C(=O)c2ccc(Cl)c(C(F)(F)F)c2)c2ccc(-c3cc(C(F)(F)F)nn3C)c(O)c2)cc1 [NUCC-0226280],45.2,10.3,,,,
Cn1nc(C(F)(F)F)cc1-c1ccc(N(CCCOCCC(=O)NCCOCCNc2cccc3c2C(=O)N(C2CCC(=O)NC2=O)C3=O)C(=O)c2ccc(Cl)c(C(F)(F)F)c2)cc1O (centres unmarked) [NUCC-0226288],54.2,6.6,6,,,
Cn1nc(C(F)(F)F)cc1-c1ccc(N(CCCOCCC(=O)NCCOCCOCCOCCNc2cccc3c2C(=O)N(C2CCC(=O)NC2=O)C3=O)C(=O)c2ccc(Cl)c(C(F)(F)F)c2)cc1O (centres unmarked) [NUCC-0226289],120,7,7.4,,,
Cn1nc(C(F)(F)F)cc1-c1ccc(OCc2ccc(OCCOCCNC(=O)COc3cccc4c3C(=O)N(C3CCC(=O)NC3=O)C4=O)cc2)c(-c2ccc(Cl)c(C(F)(F)F)c2)c1O (centres unmarked) [NUCC-0226302],79.4,2,,,,
Cn1nc(C(F)(F)F)cc1-c1ccc(OCCCOCCC(=O)NCCOCCOCCNc2cccc3c2C(=O)N(C2CCC(=O)NC2=O)C3=O)c(-c2ccc(Cl)c(C(F)(F)F)c2)c1O (centres unmarked) [NUCC-0226304],170,4.6,,,,
Cn1nc(C(F)(F)F)cc1-c1ccc(OCc2ccc(Cl)cc2)c(-c2ccc(F)cc2)c1O [NUCC-0226503],129,3,,,,
Cn1nncc1-c1ccc(OCc2ccc(Cl)cc2)c(-c2ccc(Cl)c(C(F)(F)F)c2)c1O [NUCC-0226656],,,,,103,1.5
Cn1nncc1-c1ccc(OCc2ccc(Cl)cc2)c(-c2ccc(Cl)c(C(F)(F)F)c2)c1O [NUCC-0226659],90.3,1.5,,,,
